# Reference: PubChem BioAssay AID463229 (Broad Institute, 2010)
# Test system: INS-1E rat beta cells, no cytokines, CellTiter-Glo ATP, 48 h
# Assay: cytokine-free beta-cell viability effect – INS-1E rat cells, ATP luminescence, cherry pick, counter-screen for beta-cell apoptosis protection project, dose response (AID 463229)
row,Compound,AC50 [µM]
1,Cc1nc(C(=O)NNC(=O)c2c(-c3c(Cl)cccc3Cl)noc2C)cs1,19.9
2,N#Cc1c(Cl)nsc1NC(=O)c1ccccc1,8.12
3,CCOc1ccc(-c2c[n+]3c(n2-c2ccccc2)CCCCC3)cc1,0.982
4,N#C/C(=N\Nc1cccc([N+](=O)[O-])c1)C(=O)c1ccc(Br)cc1,7.29
5,CCCCCCCCCCOC(=O)Cn1c(COc2ccccc2OC)[n+](C)c2ccccc21,1.09
6,CN(C)C1=NC[C@H](Cc2ccccc2)N1CCCC1CCCCC1,13.6
7,Cc1occc1C(=O)N/N=C/c1ccc2c(c1)OCO2,5.48
8,O=S(=O)([N-]c1nc2ccccc2nc1-[n+]1ccc(Cc2ccccc2)cc1)c1ccc(Br)s1,12.9
9,CC(=O)c1c(C)oc2c1C(=O)c1ccccc1C2=O,14.4
10,CC1=[N+](C)c2ccc3ccccc3c2C1(C)C,14.6
11,CN(C)S(=O)(=O)c1ccc(Oc2ccc(S(=O)(=O)N(C)C)cc2)cc1,9.29
12,Cc1cccc(C(=O)Nc2ccc(C(=O)/C=C/c3cccnc3)cc2)c1,7.53
13,O=C(NCc1cccnc1)c1ccc(NC(=O)c2ccc(Br)cc2)cc1,< 0.195
14,COc1ccc(C(=O)N/N=C(\C)c2ccccn2)cc1OC,2.54
15,CC1=CC2/C=C(\C)CCC(O)C(O)/C=C/C(=O)C23C(=O)NC(CC(C)C)C3C1C (stereo not drawn),7.48
16,CNc1ccc2oc(C[C@H]3O[C@@]4(CC[C@H]3C)O[C@H]([C@H](C)C(=O)c3ccc[nH]3)[C@H](C)C[C@H]4C)nc2c1C(=O)O,1.32
17,Cc1cccc(NC(=O)Nc2cccc(Oc3c(F)c(F)c(F)c(F)c3F)c2)c1,6.96
18,CC1CCC(C(C)C)C(OC(=O)Cn2c(-c3ccc(Cl)cc3)[n+](C)c3ccccc32)C1 (stereo not drawn),3.83
19,Cc1ccc2nc(-c3ccc(-c4cccc(Cl)c4)cc3)c(NCc3ccccc3)n2c1,2.48
20,Cn1nc(C(C)(C)C)cc1C(=O)NCc1cc(F)cc2c1OCOC2,5.86
21,COC(=O)C1CCCCN1C(=O)c1cc(COc2cccc3cnccc23)on1 (stereo not drawn),7.11
22,COc1ccccc1C(=O)Nc1nc(-c2ccc(S(=O)(=O)N3CCOCC3)cc2)cs1,5.29
23,COc1ccc2nc(Nc3nc(CSc4nc5ccccc5[nH]4)cc(=O)[nH]3)nc(C)c2c1,7.05
24,CCCCC(CC)CN=C(N)NC(N)=NCCCCCCN=C(N)NC(N)=NCC(CC)CCCC (stereo not drawn),2.35
25,FC(F)(F)c1cnc(NNC(=S)Nc2ccc(Cl)cc2)c(Cl)c1,6.99
26,CC(=O)CSc1ccc(-c2nc3ccccc3[nH]2)cn1,6.38
27,C=CC(C)(C)c1c(O)c(CC=C(C)C)c(O)c2c(=O)c3ccc(O)c(O)c3oc12,5.39

row,Compound,AC50 [µM]
1,O=C(NNc1c(Cl)cc(Cl)cc1Cl)c1cccc([N+](=O)[O-])c1,3.08
2,Cc1sc2ncnc(N3CCN(CCOc4ccc(Cl)cc4)CC3)c2c1C,4.74
3,CC1(C)CCN2CCC(C)(C)c3c(O)ccc1c32,13.2
4,Cc1ccc(C(=O)NC(=S)/C=C2\N(C)c3ccccc3C2(C)C)cc1,4.23
5,CCC(/C=C1\Sc2ccc(OC)cc2N1CC)=C\c1sc2ccc(OC)cc2[n+]1CCCS(=O)(=O)[O-],5.74
6,CCOC(=O)/C(=C\c1ccc(OC(F)F)cc1)C1=Nn2c(nnc2-c2ccc(Cl)cc2)SC1,5.5
7,COc1cc(/C=C2\CC/C(=C\c3cc(OC)c(O)c(OC)c3)C2=O)cc(OC)c1O,4.29
8,Cc1cc(/C=N/n2cnnc2)c(C)n1-c1ccc(OCc2ccc(Cl)cc2)cc1,1.26
9,CC(C)(C)C1CCC2(CC1)C(C#N)=C(SCC(=O)NC1CCCCC1)NC(=O)C2C#N (stereo not drawn),15.9
10,CCCCOc1ccc(-c2cc(C(=O)NNC(=S)NCC)c3ccccc3n2)cc1,6.66
11,COc1ccc(-c2cc(-c3ccccc3)[n+](C)c(-c3ccccc3)c2)cc1,4.28
12,CC(=O)NC(c1ccccc1)c1cc(Cl)c2cccnc2c1O (stereo not drawn),6.26
13,COc1ccc(S(=O)(=O)N(C(=O)c2ccco2)c2cc3sc(=O)oc3c3ccccc23)cc1,14.5
14,CCc1cc[n+](C2=C([O-])c3ccccc3C(=O)/C2=N\S(=O)(=O)c2cccs2)cc1,9.35
15,CCCCC1(Cc2ccc([N+](=O)[O-])cc2)C(=O)N(c2ccccc2)N(c2ccccc2)C1=O,3.72
16,O=C(NNc1ccnc2cc(Cl)ccc12)C1CCCCC1,2.53
17,CCN1C/C(=C/c2ccc(OC)c(O)c2)C(=O)/C(=C/c2ccc(OC)c(O)c2)C1,4.92
18,CC(C)CNC(=O)COC(=O)c1c2c(nc3ccccc13)/C(=C/c1cccs1)CC2,1.5
19,CCCCCCCCCCCCCCCC[N+](C)(C)CCN(Cc1ccc(OC)cc1)c1ncccn1,4.23
20,O=C(NC(Nc1nc2ccc([N+](=O)[O-])cc2s1)(C(F)(F)F)C(F)(F)F)c1ccccc1,0.367
21,S=C(c1cn(CCOc2cccc3ccccc23)c2ccccc12)N1CCCC1,7.48
22,CC[C@H](C)Cc1cn([C@@H](CCCCNC(=O)OC(C)(C)C)C(=O)NCCCCCCCCCCC(=O)N2CCN(C(=O)OC(C)(C)C)CC2)nn1,20.2
23,CC[C@@]1(O)C(=O)OCc2c1cc1n(c2=O)Cc2cc3c(N)cccc3nc2-1,< 0.195
24,C(=N\Nc1nncc2ccccc12)/c1ccccn1,4.47
25,COc1cc(CNC(C)c2ccccc2)cc(Br)c1OCc1ccc(F)cc1 (stereo not drawn),13.8
26,Cc1cc(O)c2c(c1)C(=O)C13C(=C2O)C(=O)[C@H]2[C@@H](O)[C@@H]1[C@H]1[C@H](O)[C@@H]3C(=O)C3=C(O)c4c(O)cc(C)cc4C(=O)C312 (stereo partly drawn),4.68
